Measurements published in patent EP0106793A1, “7-Alpha-alkyl-17-alpha-pregn-4-ene-21,17-carbolactones and -21-carboxylic acid salts and procedures for manufacturing them and pharmaceutical preparations containing them” (SCHERING AKTIENGESELLSCHAFT, priority 1982, dated 1984).

Tested on: aldosterone
Experiment: antialdosterone effect, experimental model by Hollmann
Format: in vivo
Conditions: relative to spironolactone = 1
Procedure: The antialdosterone effect was determined and measured in an experimental model by Hallmann (G. Hollmann et al, Tubular Effects and Renal Elimination of Spirono- lactones, Naunyn-Schmiedebergs Arch. Exp. Path. Pharmak. 247 (1964), p 419; P. Marx, Renal Effects of d-aldosterone and Its Antagonist Spironolactone, Diss. Med. Fak. FU Berlin, 1966 whose disclosure is incorporated by references herein).

Q: For CC(=O)S[C@@H]1CC2=CC(=O)CC[C@]2(C)[C@H]2CC[C@@]3(C)[C@@H](CC[C@@]34CCC(=O)O4)[C@H]12 [spironolactone], which “relative values of the degree of antialdosterone effect” value is on record?
A: Its value is 1.
